Assay type in all cases: cell-based
Assay [1] relates to HL-60 cells (human acute myeloid leukemia cells). Put plainly: alamarBlue proliferation assay with HL-60 cells. As to conditions: 120 h, 5 days, relative to DMSO baseline level of 1.0, read-out: AVEw, weighted arithmetic mean of normalized fluorescence intensity values (Activity Range), HL-60 proliferation. As to the method:
(§1) The antiproliferative activities of compounds falling under formula I, formula II, formula III, formula IV and formula V were investigated on cells or cell lines originating from a disorder of the myeloid cell compartment, the neuroendocrine system, the cervix, and the mucosal epithelium, as well as from the skin epithelium. To this end, HL-60 cells, TT cells, HeLa cells, CAL-27 cells and human primary epidermal keratinocytes (HPEK) were seeded into 96-well plates suitable for fluorescence assays (CORNING #3598) at following initial cell numbers: 1000 cells per well for HL-60; 9000 cells per well for TT; 2000 cells per well for HeLa, 2000 cells per well for CAL-27, 2000 cells per well for HPEK. The cells were treated with compounds at indicated final concentrations (diluted from the 1000× stock-solutions in DMSO to a final DMSO concentration of 0.1% v/v) or with the empty carrier DMSO at 0.1% v/v as control for 5 days. At day 5 after starting the treatments the cells were subjected to the alamarBlue® Proliferation Assay (Bio-Rad Serotec GmbH, BUF012B) according to the protocol of the manufacturer. The readout was taken with a multi-well plate-reader in the fluorescence mode with applying a filter for excitation at 560 nm (band width 10 nm) and for emission at 590 nm (band width 10 nm). Resveratrol (RES) treatment was included as control for growth inhibition.
(§2) The assays were performed in duplicate or more replicates of independent single experiments each containing a six-fold replicate for every condition. For every individual plate, the measured fluorescence intensity values of the conditions with compound treatment were normalized against the corresponding equally weighted arithmetic mean of the fluorescence intensity values of the six DMSO treated control wells in order to obtain the relative values to a baseline level of 1.0. The statistical calculations were performed in analogy to the luciferase assay as described above. To this end, two independent outlier analyses were performed according to the methods by Peirce and Chauvenet (Ross, Journal of Engineering Technology 2003, 1-12). Outliers confirmed by at least one of the methods were excluded from the calculations but not more than one value out of six per compound within a single experiment. The weighted arithmetic mean AVEw for each compound was calculated from the normalized values over all independent replicates of the single experiments comprising the six replicates each. The corresponding standard deviation for the weighted arithmetic mean was calculated according to the method described by Bronstein et al. (Bronstein, Semendjajew, Musiol, Mühlig, Taschenbuch der Mathematik, 5th edition 2001 (German), publisher: Verlag Harri Deutsch, Frankfurt am Main and Thun) and was combined with the Gauß′ error propagation associated with the performed calculation for the normalization. The resulting standard deviation is herein referred to as “combined standard deviation”.
HL-60 cells were cultivated according to the protocol of the provider in RPMI 1640 medium (Fisherscientific, #11554526) containing 10% fetal bovine serum (Fisherscientific, #15517589).
(§3) A compound is considered as a growth inhibitor of HL-60 cells, if—at a reference concentration of 20 μM—the weighted arithmetic mean of the normalized fluorescence intensity values after addition of the corresponding combined standard deviation amounts to 0.9 or lower, in particular to 0.8 or lower, 0.7 or lower, 0.6 or lower, 0.4 or lower, and 0.2 or lower, relative to the overall basis level of 1.0. The overall basis level was calculated as the weighted arithmetic mean of all normalized values from the DMSO control measurements in analogy to the calculations performed for the test-compounds. The corresponding combined standard deviation for the DMSO values amounts to less than 1·10^−2.

The subject of assay [2] is CAL-27 cells (human tongue squamous cell carcinoma cells). Put plainly: alamarBlue proliferation assay with CAL-27 cells. Particulars: Homo sapiens, 120 h, 20 μM, 5 days, relative to DMSO baseline level of 1.0, read-out: AVEw, weighted arithmetic mean of normalized fluorescence intensity values (Activity Range), CAL-27 proliferation. As to the method: as §1, §2
CAL-27 cells were cultivated according to the protocol of the provider (but at 5% instead of 10% CO2) in DMEM medium (Fisherscientific, #11584456) containing 10% fetal bovine serum (Fisherscientific, #15517589).
as §3, with “CAL-27” for “HL-60”

Assay [3] has as its system Notch signaling (hNotch1ΔE, human Notch1 receptor) in HeLa cells. The assay can be described thus: Notch reporter assay (luciferase luminescence readout in transfected HeLa cells). Particulars: Homo sapiens, 20 hours, relative to DMSO baseline level of 1.0, read-out: AVEw, weighted arithmetic mean of double-normalized Notch-reporter luciferase luminescence values (Activity Range). As to the method: An according Notch-reporter assay, i.e. a luciferase-based luminescence readout, was used here to quantify the ability of the claimed small molecules to augment Notch signaling in a cellular system. For this purpose, HeLa cells, obtainable from the American Type Culture Collection (ATCC) under the accession number ATCC-CCL-2, were transiently transfected for 24 hours using FuGENE® HD (Promega, #E2311) as transfection reagent with expression vectors of a membrane-tethered form of the constitutively active intracellular domain of the human Notch1 receptor (hNotch1ΔE) to activate the signaling cascade (BPS Bioscience, human analogue to Notch Pathway Reporter Kit #60509 component C), a Firefly luciferase being expressed under the control of a Notch-responsive promoter to monitor Notch signaling (BPS Bioscience, Notch Pathway Reporter Kit #60509, CSL luciferase reporter vector from component A not premixed with Renilla luciferase vector), and a Renilla luciferase being constitutively expressed in a Notch signaling independent manner to include a measure for the cell number per sample (Promega, pRL-SV40, #E2231). HeLa cells were cultivated according to the protocol of the provider in DMEM medium (Fisherscientific, #11584456) containing 10% fetal bovine serum (Fisherscientific, #15517589). The transfection was carried out in a 100 mm-culture dish (StarLab, #CC7682-3394) with cells being properly attached to the plate at a cell confluency of 80-90% in a total volume of 7 mL culture medium. Per dish to be transfected, a transfection mix was prepared by adding to 238 μL Opti-MEM (Fisherscientific, #10149832) 40 μL of the hNotch1ΔE expression vector (100 ng/μL), 80 μL of the CSL luciferase reporter vector (40 ng/μL), 4 μL of the pRL-SV40-Renilla luciferase vector (10 ng/μL), and in the last step 18.1 μL of FuGENE® HD. After addition of FuGENE® HD the transfection mix was let stand for 15 min at room temperature and hereafter equally distributed into the culture dish. Subsequently, i.e. after 24 hours of transfection, the transfected cells (10.000 cells per well) were incubated with the test-compounds at a final concentration of 10 μM (diluted from 10 mM stock-solutions in DMSO to a final DMSO concentration of 0.1% v/v) or with the empty carrier DMSO at 0.1% v/v as control for 20 hours in 96-well plates suitable for luminescence readouts (CORNING, #3610). Hereafter, the cells were lysed with 30 μL per well of Passive Lysis Buffer (Promega, #E194A, component of Dual-Luciferase® Reporter Assay System, #E1910) and the Firefly as well as Renilla luciferase values were measured with a luminescence reader with applying 15 μL per well each of the corresponding enzyme substrates needed to create the luminescence signals (Promega, Dual-Luciferase® Reporter Assay System, #E1910).
The suitability of the assays for monitoring Notch signaling was controlled by additionally including a generally accepted commercial Notch inhibitor, i.e. DAPT, as negative control, as well as the reported Notch enhancer resveratrol (RES) as positive control (Pinchot et al., Cancer 2011, 117, 1386-1398; Truong et al., Ann. Surg. Oncol. 2011, 18, 1506-1511; Yu et al., Mol. Cancer Ther. 2013, 12, 1276-1287). Both control compounds were likewise tested at 10 μM.
Per single experiment the measurement was performed in six replicates per compound. For every compound, this experiment was repeated in three or more independent replicates. The values of the Notch-reporter luciferase were normalized by division through the corresponding individual Notch-independent Renilla values in order to eliminate the impact of variation in the absolute cell-numbers in between the samples. For every individual plate, a second normalization was performed against the equally weighted arithmetic mean (here abbreviated as AVE) of the six associated Renilla-normalized DMSO-control values within a single experiment in order to obtain the relative values to a baseline level of 1.0. […]

For the compound `O=C(NO)c1ccc(Oc2ccc(C3(C(F)(F)C(F)(F)F)CC3)cc2)cc1` [Compound 767, N-hydroxy-4-(4-(1-(perfluoroethyl)cyclopropyl)phenoxy)benzamide], the activity at 20 µM in assay [1] and in assay [2] was 0 to 20% in each case.

Take `CCC(C)(C)c1ccc(Oc2ccc(C(=O)NO)cc2F)cc1` [Compound 529, 3-fluoro-N-hydroxy-4-(4-(tert-pentyl)phenoxy)benzamide]: the activity at 20 µM in assay [1] and in assay [2] was 0 to 20% in each case.

Regarding `CN(C)C(=O)c1ccc(Oc2ccc(C3C[C@@H]4CC[C@H]3C4)cc2)cc1` (stereo partly drawn) [Compound 236, 4-(4-((1S,4R)-bicyclo[2.2.1]heptan-2-yl)phenoxy)-N,N-dimethylbenzamide], the activity at 20 µM in assay [1] lay within 40 to 60%; in assay [2] it was 80 to 90%.

For `O=C(NO)c1cnc(Oc2ccc(C3(C(F)(F)F)CC3)cc2)c(F)c1` [Compound 804, 5-fluoro-N-hydroxy-6-(4-(1-(trifluoromethyl)cyclopropyl)phenoxy)nicotinamide], the activity at 20 µM in assay [1] and in assay [2] was 0 to 20% in each case.

With `CCCc1ccc(Oc2ccc(C(=O)N(C)C)cn2)cc1` [Compound 318, N,N-dimethyl-6-(4-propylphenoxy)nicotinamide], the activity at 20 µM in assay [1] was in the range of 40 to 60%. The fold induction at 10 µM in assay [3] fell in the range of 1.7 to 2.

For the compound `COC(=O)c1ccc(Oc2ccc(C3CCCCC3)cc2)c(F)c1` [Compound 385, methyl 4-(4-cyclohexylphenoxy)-3-fluorobenzoate], in assay [1], the activity at 20 µM was in the range of 80 to 90%. In assay [3], the fold induction at 10 µM fell in the range of 1.4 to 1.7.

`CCOC(=O)c1ccc(Oc2ccc(C3CC4CCC3CC4)cc2)nc1` (racemic) [Compound 134, ethyl 6-(4-((1s,4s)-bicyclo[2.2.2]octan-2-yl)phenoxy)nicotinate]: in assay [1], the activity at 20 µM was 70 to 80%. The fold induction at 10 µM in assay [3] was in the range of 1.4 to 1.7.

Turning to `COC(=O)c1ccc(Oc2ccc(C3CCCCC3)cc2)cc1` [Compound 041, methyl 4-(4-(cyclohexyl)phenoxy)benzoate], in assay [1], the activity at 20 µM is 70 to 80%. The fold induction at 10 µM in assay [3] lay in the range of 1.4 to 1.7.

On to `CCC(C)(C)c1ccc(Oc2ccc(C(=O)OC)cc2)cc1` [Compound 030, Methyl 4-(4-(tert-Pentyl)phenoxy)benzoate], for which the activity at 20 µM in assay [1] lay within 80 to 90%. Besides, the fold induction at 10 µM in assay [3] was not below 2.

Regarding `CC(C)c1ccc(Oc2ccc(C(=O)O)cn2)cc1` [Compound 075, 6-(4-isopropylphenoxy)nicotinic acid], the activity at 20 µM in assay [1] was in the range of 80 to 90%. The fold induction at 10 µM in assay [3] fell in the range of 1.4 to 1.7.

With `CCc1ccc(Oc2ccc(C(=O)N(C)C)cn2)cc1` [Compound 317, 6-(4-ethylphenoxy)-N,N-dimethylnicotinamide], the activity at 20 µM in assay [1] fell in the range of 80 to 90%. In addition, the fold induction at 10 µM in assay [3] was in the range of 1.4 to 1.7.

For `CC(C)c1ccc(Oc2ccc(C(=O)N(C)C)cn2)cc1` [Compound 322, 6-(4-Isopropylphenoxy)-N,N-dimethylnicotinamide], the activity at 20 µM in assay [1] fell in the range of 70 to 80%. Besides, in assay [3], the fold induction at 10 µM was not below 2.

Regarding `CCc1ccc(Oc2ccc(C(=O)OC)cn2)cc1` [Compound 092, methyl 6-(4-ethylphenoxy)nicotinate], in assay [1], the activity at 20 µM lay in the range of 80 to 90%. Also, in assay [3], the fold induction at 10 µM fell in the range of 1.2 to 1.3.

In the case of `COC(=O)c1ccc(Oc2ccc(C3CC4CCC3CC4)cc2)cc1` (racemic) [Compound 044, (±)-Methyl 4-(4-(bicyclo[2.2.2]octan-2-yl)phenoxy)benzoate], in assay [1], the activity at 20 µM lay in the range of 40 to 60%. The fold induction at 10 µM in assay [3] was in the range of 1.3 to 1.4.

`CCCCc1ccc(Oc2ccc(C(=O)O)cn2)cc1` [Compound 072, 6-(4-butylphenoxy)nicotinic acid]: in assay [1], the activity at 20 µM was in the range of 80 to 90%. In addition, the fold induction at 10 µM in assay [3] was in the range of 1.4 to 1.7.

As to `COC(=O)c1ccc(Oc2ccc(C34CC5CC(CC(C5)C3)C4)cc2)cc1` [Compound 045, methyl 4-(4-((3r,5r,7r)-adamantan-1-yl)phenoxy)benzoate], the activity at 20 µM in assay [1] lay within 40 to 60%. In assay [3], the fold induction at 10 µM is 1.7 to 2.

For the origin of these results see patent US12600696B2 (XENIOPRO GMBH, priority 2017, dated 2026).
